From patent publication US12252484B2, “Pyrazolopyridine compounds for the treatment of autoimmune disease” (Hoffmann-La Roche Inc., priority 2018, dated 2025) come the findings set out here.

pIC50: −log10 of the molar value.

The target of one assay is T1, human TLR9 (Homo sapiens, UniProt Q9NR96).
T1 sequence (Q9NR96 26-1032): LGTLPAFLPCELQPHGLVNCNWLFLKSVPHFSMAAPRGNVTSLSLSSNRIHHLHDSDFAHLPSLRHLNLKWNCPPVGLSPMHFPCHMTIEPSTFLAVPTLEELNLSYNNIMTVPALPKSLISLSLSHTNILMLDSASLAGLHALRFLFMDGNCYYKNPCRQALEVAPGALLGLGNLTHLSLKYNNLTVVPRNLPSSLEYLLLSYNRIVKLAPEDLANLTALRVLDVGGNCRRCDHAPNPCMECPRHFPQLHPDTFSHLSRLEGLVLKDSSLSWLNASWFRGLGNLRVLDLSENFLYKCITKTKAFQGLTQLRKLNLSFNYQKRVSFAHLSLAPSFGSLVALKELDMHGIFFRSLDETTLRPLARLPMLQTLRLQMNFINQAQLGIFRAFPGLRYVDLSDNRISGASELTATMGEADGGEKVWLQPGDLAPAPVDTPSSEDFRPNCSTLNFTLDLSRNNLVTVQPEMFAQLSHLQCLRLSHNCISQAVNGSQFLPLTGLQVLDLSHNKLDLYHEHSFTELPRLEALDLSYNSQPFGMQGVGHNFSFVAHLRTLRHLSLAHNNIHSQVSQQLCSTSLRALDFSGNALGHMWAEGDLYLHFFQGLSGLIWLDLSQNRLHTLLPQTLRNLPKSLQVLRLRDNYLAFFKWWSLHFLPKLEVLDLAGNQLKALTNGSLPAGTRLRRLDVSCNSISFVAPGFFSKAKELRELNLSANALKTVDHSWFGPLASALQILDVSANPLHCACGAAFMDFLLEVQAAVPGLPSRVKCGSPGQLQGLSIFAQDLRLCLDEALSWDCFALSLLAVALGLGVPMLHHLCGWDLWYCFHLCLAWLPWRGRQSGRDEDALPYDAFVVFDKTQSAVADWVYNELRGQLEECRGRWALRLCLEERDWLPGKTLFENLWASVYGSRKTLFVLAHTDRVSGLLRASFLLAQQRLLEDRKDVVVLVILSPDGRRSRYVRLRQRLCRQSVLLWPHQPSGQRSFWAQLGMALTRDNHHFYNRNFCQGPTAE
Nature of the assay: HEK293-Blue-hTLR-9 cells assay (SEAP reporter, ODN2006 stimulation). It is filed as cell-based.
Conditions: not given
The procedure:
The following tests were carried out in order to determine the activity of the compounds of formula (I) in HEK293-Blue-hTLR-7/8/9 cells assay.
HEK293-Blue-hTLR-9 Cells Assay:
A stable HEK293-Blue-hTLR-9 cell line was purchased from InvivoGen (Cat. #: hkb-htlr9, San Diego, California, USA). These cells were originally designed for studying the stimulation of human TLR9 by monitoring the activation of NF-κB. A SEAP (secreted embryonic alkaline phosphatase) reporter gene was placed under the control of the IFN-β minimal promoter fused to five NF-κB and AP-1-binding sites. The SEAP was induced by activating NF-κB and AP-1 via stimulating HEK-Blue hTLR9 cells with TLR9 ligands. Therefore the reporter expression was declined by TLR9 antagonist under the stimulation of a ligand, such as ODN2006 (Cat. #: tlrl-2006-1, Invivogen, San Diego, California, USA), for incubation of 20 hrs. The cell culture supernatant SEAP reporter activity was determined using QUANTI-Blue™ kit (Cat. #: rep-qb1, Invivogen, San Diego, California, USA) at a wavelength of 640 nm, a detection medium that turns purple or blue in the presence of alkaline phosphatase.
HEK293-Blue-hTLR9 cells were incubated at a density of 250,000˜450,000 cells/mL in a volume of 170 μL in a 96-well plate in Dulbecco's Modified Eagle's medium (DMEM) containing 4.5 g/L glucose, 50 U/mL penicillin, […], 2 mM L-glutamine, 10% (v/v) heat-inactivated fetal bovine serum with addition of 20 μL test compound in a serial dilution in the presence of final DMSO at 1% and 10 μL of 20 uM ODN2006 in above DMEM, perform incubation under 37° C. in a CO2 incubator for 20 hrs. Then 20 μL of the supernatant from each well was incubated with 180 μL Quanti-blue substrate solution at 37° C. for 2 hrs and the absorbance was read at 620˜655 nm using a spectrophotometer. The signalling pathway that TLR9 activation leads to downstream NF-κB activation has been widely accepted, and therefore similar reporter assay was modified for evaluating TLR9 antagonist.
As for `C[C@@H]1CN(c2ccc(C#N)n3nccc23)C[C@H](C(=O)NC2CC3CCCC(C2)N3C)O1` (stereo partly drawn) [Example 35, (2R,6R)-4-(7-cyanopyrazolo[1,5-a]pyridin-4-yl)-6-methyl-N-(9-methyl-9-azabicyclo[3.3.1]nonan-3-yl)morpholine-2-carboxamide], the negative-log IC50 (pIC50) (usually the IC50 on a negative log10 scale, so that one unit is a factor of ten) is 4.96.

The assay is the same for the next values; noted with them: HEK293-Blue-hTLR-9 cells, ODN2006 ligand, 20 hrs incubation; read-out: TLR9 IC50.
With `C[C@@H]1CN(c2ccc(C#N)n3nccc23)C[C@H](C(=O)NC2C3CCC2CNC3)O1` (stereo partly drawn) [Example 26, (2R,6R)-N-(3-azabicyclo[3.2.1]octan-8-yl)-4-(7-cyanopyrazolo[1,5-a]pyridin-4-yl)-6-methyl-morpholine-2-carboxamide], the pIC50 is 4.89.

Consider `C[C@@H]1CN(c2ccc(C#N)n3nccc23)C[C@H](C(=O)NC2C3CNCC2COC3)O1` (stereo partly drawn) [Example 27, (2R,6R)-4-(7-cyanopyrazolo[1,5-a]pyridin-4-yl)-6-methyl-N-(3-oxa-7-azabicyclo[3.3.1]nonan-9-yl)morpholine-2-carboxamide], for which the pIC50 is 5.17.

`C[C@@H]1CN(c2ccc(C#N)n3nccc23)C[C@H](C(=O)N2CCC3(CCNCC3)CC2)O1` [Example 28, 4-[(2R,6R)-2-(3,9-diazaspiro[5.5]undecane-3-carbonyl)-6-methyl-morpholin-4-yl]pyrazolo[1,5a]pyridine-7-carbonitrile]: the pIC50 is 5.77.

`C[C@@H]1CN(c2ccc(C#N)n3nccc23)C[C@H](C(=O)NC2C3CNC[C@@H]32)O1` (stereo partly drawn) [Example 31, Trans-(2R,6R)-N-(3-azabicyclo[3.1.0]hexan-6-yl)-4-(7-cyanopyrazolo[1,5-a]pyridin-4-yl)-6-methyl-morpholine-2-carboxamide]: the negative logarithm of the IC50 (pIC50) was 5.96.

Turning to `C[C@@H]1CN(c2ccc(C#N)n3nccc23)C[C@H](C(=O)NC2CN(C)CC23CC3)O1` (stereo partly drawn) [Example 32, (2R,6R)-4-(7-cyanopyrazolo[1,5-a]pyridin-4-yl)-6-methyl-N-(5-methyl-5-azaspiro[2.4]heptan-7-yl)morpholine-2-carboxamide], the pIC50 was 5.01.

With `C[C@@H]1CN(c2ccc(C#N)n3nccc23)C[C@H](C(=O)NC2CC3CCC(C2)N3C)O1` (stereo partly drawn) [Example 33, (2R,6R)-4-(7-cyanopyrazolo[1,5-a]pyridin-4-yl)-6-methyl-N-(8-methyl-8-azabicyclo[3.2.1]octan-3-yl)morpholine-2-carboxamide], the pIC50 is 5.11.

As to `C[C@@H]1CN(c2ccc(C#N)n3nccc23)C[C@H](C(=O)NC2CC3CCC2CN3C)O1` (stereo partly drawn) [Example 34, (2R,6R)-4-(7-cyanopyrazolo[1,5-a]pyridin-4-yl)-6-methyl-N-(2-methyl-2-azabicyclo[2.2.2]octan-5-yl)morpholine-2-carboxamide], the pIC50 was 4.96.

For the molecule `C[C@@H]1CN(c2ccc(C#N)n3nccc23)C[C@H](C(=O)NC2CC3CC2CN3)O1` (stereo partly drawn) [Example 36, (2R,6R)-N-(2-azabicyclo[2.2.1]heptan-5-yl)-4-(7-cyanopyrazolo[1,5-a]pyridin-4-yl)-6-methyl-morpholine-2-carboxamide], the pIC50 was 4.92.

As to `C[C@@H]1CN(c2ccc(C#N)n3nccc23)C[C@H](C(=O)NC2C3CCCC2CNC3)O1` (stereo partly drawn) [Example 37, (2R,6R)-N-(3-azabicyclo[3.3.1]nonan-9-yl)-4-(7-cyanopyrazolo[1,5-a]pyridin-4-yl)-6-methyl-morpholine-2-carboxamide], the pIC50 is 5.17.

For the molecule `C[C@@H]1CN(c2ccc(Cl)n3nccc23)C[C@H](C(=O)NC2CCN(C)CC2)O1` [Example 38, (2R,6R)-4-(7-chloropyrazolo[1,5-a]pyridin-4-yl)-6-methyl-N-(1-methyl-4-piperidyl)morpholine-2-carboxamide], the pIC50 was 4.44.

On to `C[C@@H]1CN(c2ccc(C#N)n3nccc23)C[C@H](C(=O)NCC(C)(C)CN)O1` [Example 39, (2R,6R)-N-(3-amino-2,2-dimethyl-propyl)-4-(7-cyanopyrazolo[1,5-a]pyridin-4-yl)-6-methyl-morpholine-2-carboxamide], for which the pIC50 was 4.72.

With `C[C@@H]1CN(c2ccc(C#N)n3nccc23)C[C@H](C(=O)NCC2CCNC2)O1` (stereo partly drawn) [Example 40, (2R,6R)-4-(7-cyanopyrazolo[1,5-a]pyridin-4-yl)-6-methyl-N-(pyrrolidin-3-ylmethyl)morpholine-2-carboxamide], the pIC50 is 4.32.

`C[C@@H]1CN(c2ccc(C#N)n3nccc23)C[C@H](C(=O)NC(C)(C)CN)O1` [Example 41, (2R,6R)-N-(2-amino-1,1-dimethyl-ethyl)-4-(7-cyanopyrazolo[1,5-a]pyridin-4-yl)-6-methyl-morpholine-2-carboxamide]: the pIC50 was 4.96.

Consider `C[C@@H]1CN(c2ccc(C#N)n3nccc23)C[C@H](C(=O)Nc2ccc(C(=O)N3CCNCC3)cc2)O1` [Example 42, (2R,6R)-4-(7-cyanopyrazolo[1,5-a]pyridin-4-yl)-6-methyl-N-[4-(piperazine-1-carbonyl)phenyl]morpholine-2-carboxamide], for which the pIC50 was 5.74.

Regarding `C[C@H]1C[C@@H](N)CN(c2ccc(C#N)n3nccc23)C1` [Example 43, 4-[(3R,5S)-3-amino-5-methyl-1-piperidyl]pyrazolo[1,5-a]pyridine-7-carbonitrile], the pIC50 was 5.00.

Take `C[C@H]1C[C@@H](NC(=O)[C@H](C)N)CN(c2ccc(C#N)n3nccc23)C1` [Example 44, (2S)-2-amino-N-[(3R,5S)-1-(7-cyanopyrazolo[1,5-a]pyridin-4-yl)-5-methyl-3-piperidyl]propanamide]: the pIC50 is 5.00.

In the case of `C[C@H]1C[C@@H](NCC#N)CN(c2ccc(C#N)n3nccc23)C1` [Example 46, 4-[(3R,5S)-3-(cyanomethylamino)-5-methyl-1-piperidyl]pyrazolo[1,5-a]pyridine-7-carbonitrile], the pIC50 is 4.51.

For the molecule `C[C@@H]1CN(c2ccc(C#N)n3ncc(F)c23)C[C@H](C(=O)NC2CCN(C)CC2)O1` [Example 47, (2R,6R)-4-(7-cyano-3-fluoro-pyrazolo[1,5-a]pyridin-4-yl)-6-methyl-N-(1-methyl-4-piperidyl)morpholine-2-carboxamide], the pIC50 was 4.85.
